Assay results as given in patent US8921267B2, “Safening 6-(trisubstituted phenyl)-4-amino-2-pyridinecarboxylate herbicide injury on cereal crops” (Dow AgroSciences LLC, priority 2008, dated 2014).

How the values were obtained:
[1] = tested on: purple deadnettle (Lamium purpureum L; LAMPU); test: Postemergence herbicidal activity, greenhouse, visual injury: purple deadnettle; format: in vivo; design: key: visual injury, 0–100%: 0 = no injury, 100 = complete kill
Procedure: (§1) Evaluation of Postemergence Herbicidal Safening in Cereal Crops
(§2) Seeds of the desired test plant species were planted in Sun Gro MetroMix® 306 planting mixture, which typically has a pH of 6.0 to 6.8 and an organic matter content of about 30 percent, in plastic pots with a surface area of 103.2 square centimeters (cm^2). When required to ensure good germination and healthy plants, a fungicide treatment and/or other chemical or physical treatment was applied. The plants were grown for 7-36 days (d) in a greenhouse with an approximate 14-hour (h) photoperiod which was maintained at about 18° C. during the day and 17° C. during the night. Nutrients and water were added on a regular basis and supplemental lighting was provided with overhead metal halide 1000-Watt lamps as necessary. The plants were employed for testing when they reached the second or third true leaf stage.
(§3) Weighed amounts of esters (methyl) or salts (TEA [triethylammonium], K [potassium]) of 4-amino-3-chloro-6-(4-chloro-2-fluoro-3-methoxyphenyl)pyridine-2-carboxylic acid (Compound 1) were dissolved in a volume of 97:3 volume/volume (v/v) acetone/dimethylsulfoxide (DMSO) to obtain stock solutions. […] The concentrated stock solutions were diluted with an aqueous mixture of 1.5% v/v of Agri-dex crop oil concentrate to provide the appropriate application rates. Compound requirements are based upon a 12 mL application volume at a rate of 187 liters per hectare (L/ha). Stocks solutions of the safeners were prepared following the same procedure. Spray solutions of the safeners and experimental compound mixtures were prepared by adding the stock solutions to the appropriate amount of dilution solution to form a 12 mL spray solution with active ingredients in two-way combinations. Formulated compounds were applied to the plant material with an overhead Mandel track sprayer equipped with 8002E nozzles calibrated to deliver 187 L/ha over an application area of 0.503 square meters (m^2) at a spray height of 18 inches (43 centimeters (cm)) above average plant canopy. Control plants were sprayed in the same manner with the solvent blank.
(§4) The treated plants and control plants were placed in a greenhouse as described above and watered by sub-irrigation to prevent wash-off of the test compounds. After 20-22 d, the condition of the test plants as compared with that of the control plants was determined visually and scored on a scale of 0 to 100 percent where 0 corresponds to no injury and 100 corresponds to complete kill.
(§5) Colby's equation was used to determine the herbicidal effects expected from the mixtures (Colby, S. R. Calculation of the synergistic and antagonistic response of herbicide combinations. Weeds 1967, 15, 20-22.).
(§6) The following equation was used to calculate the expected activity of mixtures containing two active ingredients, A and B: Expected=A+B−(A×B/100)
(§7) A=observed efficacy of active ingredient A at the same concentration as used in the mixture.
(§8) B=observed efficacy of active ingredient B at the same concentration as used in the mixture.

[2] = tested on: bird's-eye speedwell (Veronica persica L; VERPE); test: Postemergence herbicidal activity, greenhouse, visual injury: bird's-eye speedwell; format: in vivo; design: key: visual injury, 0–100%: 0 = no injury, 100 = complete kill
Procedure: as §1, §2, §3, §4, §5, §6, §7, §8

[3] = tested on: barley (HORVW); test: Postemergence herbicidal safening, greenhouse, visual injury: barley (HORVW)
[4] = tested on: Russian thistle (Salsola iberica L; SASKR); test: Postemergence herbicidal activity, greenhouse, visual injury: Russian thistle; format: in vivo; design: key: visual injury, 0–100%: 0 = no injury, 100 = complete kill
Procedure: as §1, §2, §3, §4, §5, §6, §7, §8

[5] = tested on: cleavers (Galium aparine L; GALAP); test: Postemergence herbicidal activity, greenhouse, visual injury: cleavers; format: in vivo; design: key: visual injury, 0–100%: 0 = no injury, 100 = complete kill
Procedure: as §1, §2, §3, §4, §5, §6, §7, §8

[6] = tested on: wheat (Triticum aestivum L; TRZAW); test: Postemergence herbicidal safening, greenhouse, visual injury: wheat (TRZAW); format: in vivo
Procedure: as §1, §2, §3, §4, §5, §6, §7, §8

[7] = tested on: chickweed (Stellaria media L; STEME); test: Postemergence herbicidal activity, greenhouse, visual injury: chickweed; format: in vivo; design: key: visual injury, 0–100%: 0 = no injury, 100 = complete kill
Procedure: as §1, §2, §3, §4, §5, §6, §7, §8

[8] = tested on: wild pansy (Viola tricolor L; VIOTR); test: Postemergence herbicidal activity, greenhouse, visual injury: wild pansy; format: in vivo; design: key: visual injury, 0–100%: 0 = no injury, 100 = complete kill
Procedure: as §1, §2, §3, §4, §5, §6, §7, §8

[9] = tested on: wheat (Triticum aestivum L; TRZAS); test: Postemergence herbicidal safening, greenhouse, visual injury: wheat; format: in vivo
Procedure: as §1, §2, §3, §4, §5, §6, §7, §8

[10] = tested on: durum wheat (Triticum durum L; TRZDU); test: Postemergence herbicidal safening, greenhouse, visual injury: durum wheat; format: in vivo
Procedure: as §1, §2, §3, §4, §5, §6, §7, §8

[11] = tested on: wild buckwheat (Polygonum convolvulus L; POLCO); test: Postemergence herbicidal activity, greenhouse, visual injury: wild buckwheat; format: in vivo
Procedure: as §1, §2, §3, §4, §5, §6, §7, §8

[12] = tested on: barley (Hordeum vulgare L; HORVS); test: Postemergence herbicidal safening, greenhouse, visual injury: barley; format: in vivo
Procedure: as §1, §2, §3, §4, §5, §6, §7, §8

[13] = tested on: corn poppy (Papaver rhoeas L; PAPRH); test: Postemergence herbicidal activity, greenhouse, visual injury: corn poppy; format: in vivo
Procedure: as §1, §2, §3, §4, §5, §6, §7, §8

CC1COc2ccccc2N1C(=O)C(Cl)Cl (racemic) [Benoxacor, (±)-4-(dichloroacetyl)-3,4-dihydro-3-methyl-2H-1,4-benzoxazine, reference compound]
LAMPU Ob (Observed values) ([1]; safener 4.4 g/ha alone): 0
LAMPU Ob (Observed values) ([1]; safener 8.8 g/ha alone): 0
LAMPU Ob (Observed values) ([1]; safener 17.5 g/ha alone): 0
LAMPU Ob (Observed values) ([1]; safener 35 g/ha alone): 0
VERPE Ob ([2]; applied alone at 17.5 g/ha): 0%
VERPE Ob ([2]; applied alone at 35 g/ha): 0%
VERPE Ob ([2]; applied alone at 70 g/ha): 0%
VERPE Ob ([2]; applied alone at 140 g/ha): 0%
HORVW Ob (Observed values) ([3]; safener 4.4 g/ha alone): 0%
HORVW Ob (Observed values) ([3]; safener 8.8 g/ha alone): 0%
HORVW Ob (Observed values) ([3]; safener 17.5 g/ha alone): 0%
HORVW Ob (Observed values) ([3]; safener 35 g/ha alone): 0%
SASKR Ob ([4]; applied alone at 17.5 g/ha): 0%
SASKR Ob ([4]; applied alone at 35 g/ha): 0%
SASKR Ob ([4]; applied alone at 70 g/ha): 0%
SASKR Ob ([4]; applied alone at 140 g/ha): 0%
GALAP Ob ([5]; applied alone at 17.5 g/ha): 0%
GALAP Ob ([5]; applied alone at 35 g/ha): 0%
GALAP Ob ([5]; applied alone at 70 g/ha): 0%
GALAP Ob ([5]; applied alone at 140 g/ha): 0%
TRZAW Ob (Observed values) ([6]; safener 4.4 g/ha alone): 0%
TRZAW Ob (Observed values) ([6]; safener 8.8 g/ha alone): 0%
TRZAW Ob (Observed values) ([6]; safener 17.5 g/ha alone): 0%
TRZAW Ob (Observed values) ([6]; safener 35 g/ha alone): 0%
STEME Ob ([7]; applied alone at 17.5 g/ha): 0%
STEME Ob ([7]; applied alone at 35 g/ha): 0%
STEME Ob ([7]; applied alone at 70 g/ha): 0%
STEME Ob ([7]; applied alone at 140 g/ha): 0%
VIOTR Ob ([8]; applied alone at 17.5 g/ha): 0%
VIOTR Ob ([8]; applied alone at 35 g/ha): 0%
VIOTR Ob ([8]; applied alone at 70 g/ha): 0%
VIOTR Ob ([8]; applied alone at 140 g/ha): 0%
TRZAS Ob ([9]; applied alone at 17.5 g/ha): 0%
TRZAS Ob ([9]; applied alone at 35 g/ha): 0%
TRZAS Ob ([9]; applied alone at 70 g/ha): 0%
TRZAS Ob ([9]; applied alone at 140 g/ha): 0%
TRZDU Ob (Observed values) ([10]; safener 4.4 g/ha alone): 0%
TRZDU Ob (Observed values) ([10]; safener 8.8 g/ha alone): 0%
TRZDU Ob (Observed values) ([10]; safener 17.5 g/ha alone): 0%
TRZDU Ob (Observed values) ([10]; safener 35 g/ha alone): 0%
POLCO Ob ([11]; applied alone at 17.5 g/ha): 0%
POLCO Ob ([11]; applied alone at 35 g/ha): 0%
POLCO Ob ([11]; applied alone at 70 g/ha): 0%
POLCO Ob ([11]; applied alone at 140 g/ha): 0%
HORVS Ob ([12]; applied alone at 17.5 g/ha): 0%
HORVS Ob ([12]; applied alone at 35 g/ha): 0%
HORVS Ob ([12]; applied alone at 70 g/ha): 0%
HORVS Ob ([12]; applied alone at 140 g/ha): 0%
PAPRH Ob ([13]; applied alone at 17.5 g/ha): 0%
PAPRH Ob ([13]; applied alone at 35 g/ha): 0%
PAPRH Ob ([13]; applied alone at 70 g/ha): 0%
PAPRH Ob ([13]; applied alone at 140 g/ha): 0%
PAPRH Ob (Observed values) ([13]; safener 4.4 g/ha alone): 0
PAPRH Ob (Observed values) ([13]; safener 8.8 g/ha alone): 0
PAPRH Ob (Observed values) ([13]; safener 17.5 g/ha alone): 0
PAPRH Ob (Observed values) ([13]; safener 35 g/ha alone): 0

NC(=O)NS(=O)(=O)c1ccccc1Cl [Compound 2-CBSU, N-(aminocarbonyl)-2-chlorobenzenesulfonamide, reference compound]
LAMPU Ob (Observed values) ([1]; safener 4.4 g/ha alone): 0
LAMPU Ob (Observed values) ([1]; safener 8.8 g/ha alone): 0
LAMPU Ob (Observed values) ([1]; safener 17.5 g/ha alone): 0
LAMPU Ob (Observed values) ([1]; safener 35 g/ha alone): 0
VERPE Ob ([2]; applied alone at 17.5 g/ha): 0%
VERPE Ob ([2]; applied alone at 35 g/ha): 0%
VERPE Ob ([2]; applied alone at 70 g/ha): 0%
VERPE Ob ([2]; applied alone at 140 g/ha): 0%
HORVW Ob (Observed values) ([3]; safener 4.4 g/ha alone): 0%
HORVW Ob (Observed values) ([3]; safener 8.8 g/ha alone): 0%
HORVW Ob (Observed values) ([3]; safener 17.5 g/ha alone): 0%
HORVW Ob (Observed values) ([3]; safener 35 g/ha alone): 0%
SASKR Ob ([4]; applied alone at 17.5 g/ha): 0%
SASKR Ob ([4]; applied alone at 35 g/ha): 0%
SASKR Ob ([4]; applied alone at 70 g/ha): 0%
SASKR Ob ([4]; applied alone at 140 g/ha): 0%
GALAP Ob ([5]; applied alone at 17.5 g/ha): 0%
GALAP Ob ([5]; applied alone at 35 g/ha): 0%
GALAP Ob ([5]; applied alone at 70 g/ha): 0%
GALAP Ob ([5]; applied alone at 140 g/ha): 0%
TRZAW Ob (Observed values) ([6]; safener 4.4 g/ha alone): 0%
TRZAW Ob (Observed values) ([6]; safener 8.8 g/ha alone): 0%
TRZAW Ob (Observed values) ([6]; safener 17.5 g/ha alone): 0%
TRZAW Ob (Observed values) ([6]; safener 35 g/ha alone): 0%
STEME Ob ([7]; applied alone at 17.5 g/ha): 0%
STEME Ob ([7]; applied alone at 35 g/ha): 0%
STEME Ob ([7]; applied alone at 70 g/ha): 0%
STEME Ob ([7]; applied alone at 140 g/ha): 0%
VIOTR Ob ([8]; applied alone at 17.5 g/ha): 0%
VIOTR Ob ([8]; applied alone at 35 g/ha): 0%
VIOTR Ob ([8]; applied alone at 70 g/ha): 0%
VIOTR Ob ([8]; applied alone at 140 g/ha): 0%
TRZAS Ob ([9]; applied alone at 17.5 g/ha): 0%
TRZAS Ob ([9]; applied alone at 35 g/ha): 0%
TRZAS Ob ([9]; applied alone at 70 g/ha): 0%
TRZAS Ob ([9]; applied alone at 140 g/ha): 0%
TRZDU Ob (Observed values) ([10]; safener 4.4 g/ha alone): 0%
TRZDU Ob (Observed values) ([10]; safener 8.8 g/ha alone): 0%
TRZDU Ob (Observed values) ([10]; safener 17.5 g/ha alone): 0%
TRZDU Ob (Observed values) ([10]; safener 35 g/ha alone): 0%
POLCO Ob ([11]; applied alone at 17.5 g/ha): 0%
POLCO Ob ([11]; applied alone at 35 g/ha): 0%
POLCO Ob ([11]; applied alone at 70 g/ha): 0%
POLCO Ob ([11]; applied alone at 140 g/ha): 0%
HORVS Ob ([12]; applied alone at 17.5 g/ha): 0%
HORVS Ob ([12]; applied alone at 35 g/ha): 0%
HORVS Ob ([12]; applied alone at 70 g/ha): 0%
HORVS Ob ([12]; applied alone at 140 g/ha): 0%
PAPRH Ob ([13]; applied alone at 17.5 g/ha): 0%
PAPRH Ob ([13]; applied alone at 35 g/ha): 0%
PAPRH Ob ([13]; applied alone at 70 g/ha): 0%
PAPRH Ob ([13]; applied alone at 140 g/ha): 0%
PAPRH Ob (Observed values) ([13]; safener 4.4 g/ha alone): 0
PAPRH Ob (Observed values) ([13]; safener 8.8 g/ha alone): 0
PAPRH Ob (Observed values) ([13]; safener 17.5 g/ha alone): 0
PAPRH Ob (Observed values) ([13]; safener 35 g/ha alone): 0
